From PubChem BioAssay (NCI)
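Tested at 5 concentrations; 48 h exposure; 96-well plates; endpoints linearly interpolated, else capped at highest concentration. TGI: total growth inhibition.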

Tests used:
Assay in all cases: NCI anticancer screen, dose series, 48 h
DU-145 prostate = system: DU-145 prostate
HCT-15 colon = system: HCT-15 colon
NCI-H23 lung = system: NCI-H23 lung
OVCAR-3 ovarian = system: OVCAR-3 ovarian
OVCAR-4 ovarian = system: OVCAR-4 ovarian
OVCAR-5 ovarian = system: OVCAR-5 ovarian
SF-268 CNS = system: SF-268 CNS
SR leukemia = system: SR leukemia
T-47D breast = system: T-47D breast
DMS 114 small cell lung = system: DMS 114 small cell lung
M19-MEL melanoma = system: M19-MEL melanoma

Row | Compound | TGI (DU-145 prostate) [µM] | TGI (HCT-15 colon) [µM] | TGI (NCI-H23 lung) [µM] | TGI (OVCAR-3 ovarian) [µM] | TGI (OVCAR-4 ovarian) [µM] | TGI (OVCAR-5 ovarian) [µM] | TGI (SF-268 CNS) [µM] | TGI (SR leukemia) [µM] | TGI (T-47D breast) [µM] | TGI (DMS 114 small cell lung) [µM] | TGI (M19-MEL melanoma) [µM]
1 | O=[N+]([O-])c1ccc(O)c(/C=N/c2nc(-c3ccccc3)cs2)c1 | > 87.1 | > 89.7 | 49.6 | > 100 | > 100 | > 100 | 78 | 21.7 | 91.6 |  | 
2 | CCN(CC)CCOc1ccc(C(O)(Cc2ccc(OC)cc2)c2ccccc2)cc1 (centres undefined) |  | 51 | 45.1 | > 100 | 75.3 | 61.5 | 52 | 32 |  | 31.1 | 29.5
3 | CCCc1nnc2sc(COc3cc(Cl)c(OCc4nn5c(CCC)nnc5s4)cc3Cl)nn12 | > 100 | > 100 | > 100 | 78.5 | 80.5 | > 100 | > 100 | 1.77 | 63.5 |  | 
4 | C[n+]1c2ccccc2c(/C=N\NS(=O)(=O)c2ccc(Cl)cc2)c2ccccc21 |  | > 100 | > 100 | > 100 | > 100 | > 100 | > 100 |  |  | > 100 | > 100
5 | O=[N+]([O-])c1ccc(N2N=C(c3ccc4ccccc4c3O)CC2c2ccc(Cl)cc2)c([N+](=O)[O-])c1 (centres undefined) | > 100 | > 100 | > 100 | 79.9 | > 100 | > 100 | > 100 | 40.6 | > 100 |  | 
6 | CC12CCC(C(=Nc3cc(C(F)(F)F)cc(C(F)(F)F)c3)C1=O)C2(C)C (centres undefined) | > 100 | > 100 | > 100 | > 100 | > 100 | > 100 | 84.5 | 46.4 | 74.3 |  | 
7 | Cc1cc2oc(C)c(S(=O)(=O)NC(=O)Nc3ccc(Cl)cc3)c(=O)c2c(=O)o1 | > 100 | > 100 | > 100 | > 100 | > 100 | > 100 | > 100 | > 100 | > 100 |  | 
8 | CCCN(CCC)C1CCc2c(ccc3cc[nH]c23)C1 (centres undefined) | > 100 | > 100 | > 100 | > 100 | > 100 | > 100 | > 100 | 73.3 | > 100 |  | 
9 | COc1ccc(CNc2nc3cc(C(F)(F)F)ccc3nc2-c2ccccc2)cc1OC | > 100 | > 100 | > 100 | > 100 | > 100 | > 100 | > 100 | > 100 | > 100 |  | 
10 | Cc1c(O)c(OC2OC(CO)C(O)C(O)C2O)cc2c1C=C[C@@H]1[C@@]2(C)C(=O)C[C@]2(C)[C@@H]([C@@](C)(O)C(=O)CCC(C)(C)O)[C@H](O)C[C@@]12C (some centres undefined) | 56.6 | 66.3 | 37.9 | 46.9 | > 100 | 61.2 | 83.1 | > 100 | 46.3 |  | 
11 | O=[N+]([O-])c1ccc([N+]2=NC(c3ccccc3)=NN(c3ccccc3)C2)cc1 |  | > 100 | > 100 | > 100 | > 100 | > 100 | > 100 | > 100 |  | 94.1 | > 100
12 | COC(=O)c1cccc(OC)c1C#Cc1c(OC)cccc1OC | > 100 | > 100 | > 100 | > 100 | > 100 | > 100 | > 100 | > 100 | > 100 |  | 
13 | O=[N+]([O-])c1cccc(Cl)c1Oc1ccc(S(=O)(=O)/N=C(\NO)Nc2ccc(Cl)cc2)cc1 | 30 | 33.8 | 33.9 | 22.6 | 26.3 | 32.8 | 28 | 21.1 | 29.3 |  | 
14 | CCOC(=O)CCC(NC(=O)Cc1ccc(Oc2nc3ccccc3nc2-c2ccccc2)cc1)C(=O)OCC (centres undefined) | > 100 | > 100 | > 100 | > 100 | > 100 | > 100 | > 100 | > 100 | 99.7 |  | 
15 | CC(=O)N(C(C)=O)n1c(Cc2ccc(C)cc2)nn(C(C)=O)c1=O | > 100 | > 100 | > 100 | > 100 | > 100 | > 100 | > 100 | > 100 | > 100 |  | 
16 | CN(C)c1ccc(/C=C/C(=O)O)cc1 |  | > 100 |  | > 100 |  | > 100 | > 100 |  |  | > 100 | > 100
17 | Cc1ccc(S(=O)(=O)N/N=C2/CCC(C(C)(C)C)CC2Br)cc1 (centres undefined) | > 100 | > 100 | > 100 | 48.9 | 33.6 | 43.6 | > 100 | > 100 | > 100 |  | 
